Experimental data as given in PubChem BioAssay (NCI).
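Test compounds were applied to cells in 96-well plates for 48 hours at 5 doses. TGI: total growth inhibition.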

Columns and labels:
Assay in all cases: NCI tumour cell line growth inhibition, 48 h
A498 renal = system: A498 renal
A549 NSCLC = system: A549 NSCLC
CAKI-1 renal = system: CAKI-1 renal
CCRF-CEM leukemia = system: CCRF-CEM leukemia
COLO 205 colon = system: COLO 205 colon
DLD-1 colon = system: DLD-1 colon
DMS 114 small cell lung = system: DMS 114 small cell lung
DMS 273 small cell lung = system: DMS 273 small cell lung
EKVX NSCLC = system: EKVX NSCLC
HCC-2998 colon = system: HCC-2998 colon
HCT-116 colon = system: HCT-116 colon
HCT-15 colon = system: HCT-15 colon
HL-60(TB) leukemia = system: HL-60(TB) leukemia
HOP-18 NSCLC = system: HOP-18 NSCLC
HOP-62 NSCLC = system: HOP-62 NSCLC
HOP-92 NSCLC = system: HOP-92 NSCLC
HT29 colon = system: HT29 colon
IGROV1 ovarian = system: IGROV1 ovarian
K-562 leukemia = system: K-562 leukemia
KM12 colon = system: KM12 colon
KM20L2 colon = system: KM20L2 colon
LOX IMVI melanoma = system: LOX IMVI melanoma
M19-MEL melanoma = system: M19-MEL melanoma
MALME-3M melanoma = system: MALME-3M melanoma
MCF7 breast = system: MCF7 breast
NCI-H226 lung = system: NCI-H226 lung
NCI-H23 lung = system: NCI-H23 lung
NCI-H460 lung = system: NCI-H460 lung
NCI-H522 lung = system: NCI-H522 lung
NCI/ADR-RES ovarian = system: NCI/ADR-RES ovarian
OVCAR-3 ovarian = system: OVCAR-3 ovarian
OVCAR-4 ovarian = system: OVCAR-4 ovarian
OVCAR-5 ovarian = system: OVCAR-5 ovarian
OVCAR-8 ovarian = system: OVCAR-8 ovarian
P388 leukemia = system: P388 leukemia
P388/ADR leukemia = system: P388/ADR leukemia
RPMI-8226 leukemia = system: RPMI-8226 leukemia
RXF 393 renal = system: RXF 393 renal
SF-268 CNS = system: SF-268 CNS
SF-295 CNS = system: SF-295 CNS
SF-539 CNS = system: SF-539 CNS
SK-MEL-2 melanoma = system: SK-MEL-2 melanoma
SK-MEL-5 melanoma = system: SK-MEL-5 melanoma
SK-OV-3 ovarian = system: SK-OV-3 ovarian
SN12C renal = system: SN12C renal
SN12K1 renal = system: SN12K1 renal
SNB-75 CNS = system: SNB-75 CNS
SNB-78 CNS = system: SNB-78 CNS
SW-620 colon = system: SW-620 colon
U251 CNS = system: U251 CNS
UACC-257 melanoma = system: UACC-257 melanoma
UACC-62 melanoma = system: UACC-62 melanoma
UO-31 renal = system: UO-31 renal
XF 498 CNS = system: XF 498 CNS
MOLT-4 leukemia = system: MOLT-4 leukemia
SK-MEL-28 melanoma = system: SK-MEL-28 melanoma
SNB-19 CNS = system: SNB-19 CNS

## CC1C(O)C2(Oc3cc4c(c5c3[C@@H](CC5O)[C@H]2C)CCC2Cc3nc5c(nc3C[C@@]42C)CC2CCC3C4=C[C@H]6O[C@@]7(O[C@@](C)(CO)C[C@@H]7O)C(C)[C@@]6(O)[C@]4(C)[C@@H](O)CC3[C@]2(C)C5)OC1(C)C (some centres undefined)
A498 renal
  TGI: 0.208 µM
A549 NSCLC
  TGI: 0.841 µM
CAKI-1 renal
  TGI: 0.975 µM
CCRF-CEM leukemia
  TGI: 0.194 µM
COLO 205 colon
  TGI: 0.609 µM
DLD-1 colon
  TGI: > 3.67 µM
DMS 114 small cell lung
  TGI: 0.904 µM
DMS 273 small cell lung
  TGI: 0.114 µM
EKVX NSCLC
  TGI: > 3.67 µM
HCC-2998 colon
  TGI: > 3.67 µM
HCT-116 colon
  TGI: 1.02 µM
HCT-15 colon
  TGI: > 3.67 µM
HL-60(TB) leukemia
  TGI: 0.177 µM
HOP-18 NSCLC
  TGI: > 3.67 µM
HOP-62 NSCLC
  TGI: 0.239 µM
HOP-92 NSCLC
  TGI: > 3.67 µM
HT29 colon
  TGI: 0.456 µM
IGROV1 ovarian
  TGI: 0.894 µM
K-562 leukemia
  TGI: 0.367 µM
KM12 colon
  TGI: > 3.67 µM
KM20L2 colon
  TGI: 0.491 µM
LOX IMVI melanoma
  TGI: 0.892 µM
M19-MEL melanoma
  TGI: > 3.67 µM
MALME-3M melanoma
  TGI: 0.66 µM
MCF7 breast
  TGI: > 3.67 µM
NCI-H226 lung
  TGI: 1.23 µM
NCI-H23 lung
  TGI: 0.654 µM
NCI-H460 lung
  TGI: 0.386 µM
NCI-H522 lung
  TGI: 0.42 µM
NCI/ADR-RES ovarian
  TGI: > 3.67 µM
OVCAR-3 ovarian
  TGI: 0.406 µM
OVCAR-4 ovarian
  TGI: > 3.67 µM
OVCAR-5 ovarian
  TGI: 1.32 µM
OVCAR-8 ovarian
  TGI: 1.36 µM
P388 leukemia
  TGI: 0.435 µM
P388/ADR leukemia
  TGI: 1.84 µM
RPMI-8226 leukemia
  TGI: > 3.67 µM
RXF 393 renal
  TGI: 0.19 µM
SF-268 CNS
  TGI: 0.641 µM
SF-295 CNS
  TGI: 0.105 µM
SF-539 CNS
  TGI: 0.302 µM
SK-MEL-2 melanoma
  TGI: 0.611 µM
SK-MEL-5 melanoma
  TGI: > 3.67 µM
SK-OV-3 ovarian
  TGI: 0.502 µM
SN12C renal
  TGI: > 3.67 µM
SN12K1 renal
  TGI: 0.194 µM
SNB-75 CNS
  TGI: 0.0842 µM
SNB-78 CNS
  TGI: 0.584 µM
SW-620 colon
  TGI: 1.05 µM
U251 CNS
  TGI: 0.114 µM
UACC-257 melanoma
  TGI: > 3.67 µM
UACC-62 melanoma
  TGI: 0.231 µM
UO-31 renal
  TGI: 3.14 µM
XF 498 CNS
  TGI: 0.343 µM

## NC(=O)NN=C(CS)CS
A498 renal
  TGI: 23.4 µM
A549 NSCLC
  TGI: 40.7 µM
CAKI-1 renal
  TGI: 42.9 µM
CCRF-CEM leukemia
  TGI: > 100 µM
COLO 205 colon
  TGI: 46.6 µM
DLD-1 colon
  TGI: > 65.5 µM
DMS 114 small cell lung
  TGI: 87.5 µM
DMS 273 small cell lung
  TGI: 45.1 µM
EKVX NSCLC
  TGI: 33.7 µM
HCC-2998 colon
  TGI: > 77.5 µM
HCT-116 colon
  TGI: > 100 µM
HCT-15 colon
  TGI: 51.9 µM
HL-60(TB) leukemia
  TGI: 2.52 µM
HOP-18 NSCLC
  TGI: 66.4 µM
HOP-62 NSCLC
  TGI: 41.9 µM
HOP-92 NSCLC
  TGI: 38.6 µM
HT29 colon
  TGI: > 100 µM
IGROV1 ovarian
  TGI: > 100 µM
K-562 leukemia
  TGI: > 100 µM
KM12 colon
  TGI: > 100 µM
KM20L2 colon
  TGI: 36.4 µM
LOX IMVI melanoma
  TGI: 40.3 µM
M19-MEL melanoma
  TGI: 37.1 µM
MALME-3M melanoma
  TGI: 40 µM
MCF7 breast
  TGI: > 69 µM
MOLT-4 leukemia
  TGI: 65.8 µM
NCI-H23 lung
  TGI: 52.4 µM
NCI-H460 lung
  TGI: 59 µM
NCI-H522 lung
  TGI: 55.2 µM
NCI/ADR-RES ovarian
  TGI: 71.9 µM
OVCAR-3 ovarian
  TGI: 51.3 µM
OVCAR-4 ovarian
  TGI: > 100 µM
OVCAR-5 ovarian
  TGI: 55.7 µM
OVCAR-8 ovarian
  TGI: 77.3 µM
P388 leukemia
  TGI: 47.4 µM
P388/ADR leukemia
  TGI: > 100 µM
RPMI-8226 leukemia
  TGI: > 100 µM
RXF 393 renal
  TGI: > 74.4 µM
SF-268 CNS
  TGI: > 79.9 µM
SF-295 CNS
  TGI: 49.5 µM
SF-539 CNS
  TGI: 40.7 µM
SK-MEL-2 melanoma
  TGI: 45.1 µM
SK-MEL-28 melanoma
  TGI: 80.8 µM
SK-MEL-5 melanoma
  TGI: 32.8 µM
SK-OV-3 ovarian
  TGI: > 100 µM
SN12C renal
  TGI: 55 µM
SN12K1 renal
  TGI: 41.6 µM
SNB-19 CNS
  TGI: 52.3 µM
SNB-75 CNS
  TGI: > 75.3 µM
SNB-78 CNS
  TGI: > 100 µM
SW-620 colon
  TGI: 60 µM
U251 CNS
  TGI: 43.6 µM
UACC-257 melanoma
  TGI: > 70.6 µM
UACC-62 melanoma
  TGI: 72.5 µM
UO-31 renal
  TGI: 54.4 µM
